{
  "source": "ChEMBL document CHEMBL1201862",
  "about": "“PubChem BioAssay data set” (2004)",
  "test_in_all_cases": "DTP human tumour cell line panel, 48 h",
  "key": {"[1]": {"tested_on": "A549"}, "[2]": {"tested_on": "OVCAR-8"}, "[3]": {"tested_on": "SF-295"}, "[4]": {"tested_on": "OVCAR-5"}, "[5]": {"tested_on": "SW-620"}, "[6]": {"tested_on": "UACC-257"}, "[7]": {"tested_on": "786-0"}, "[8]": {"tested_on": "RPMI-8226"}, "[9]": {"tested_on": "SK-MEL-5"}, "[10]": {"tested_on": "MCF7"}, "[11]": {"tested_on": "Hs-578T"}, "[12]": {"tested_on": "HCC 2998"}, "[13]": {"tested_on": "HT-29"}, "[14]": {"tested_on": "SR"}, "[15]": {"tested_on": "UO-31"}, "[16]": {"tested_on": "Malme-3M"}, "[17]": {"tested_on": "MDA-N"}, "[18]": {"tested_on": "CAKI-1"}, "[19]": {"tested_on": "UACC-62"}, "[20]": {"tested_on": "K562"}, "[21]": {"tested_on": "M14"}, "[22]": {"tested_on": "SN12C"}, "[23]": {"tested_on": "NCI-H522"}, "[24]": {"tested_on": "MDA-MB-231"}, "[25]": {"tested_on": "MDA-MB-435"}, "[26]": {"tested_on": "COLO 205"}, "[27]": {"tested_on": "NCI-H226"}, "[28]": {"tested_on": "HCT-116"}, "[29]": {"tested_on": "HL-60"}, "[30]": {"tested_on": "HOP-92"}, "[31]": {"tested_on": "RXF 393"}, "[32]": {"tested_on": "SF-539"}, "[33]": {"tested_on": "EKVX"}, "[34]": {"tested_on": "CCRF-CEM"}, "[35]": {"tested_on": "OVCAR-3"}, "[36]": {"tested_on": "ACHN"}, "[37]": {"tested_on": "NCI/ADR-RES"}, "[38]": {"tested_on": "TK-10"}, "[39]": {"tested_on": "U-251"}, "[40]": {"tested_on": "SK-MEL-28"}, "[41]": {"tested_on": "HCT-15"}, "[42]": {"tested_on": "IGROV-1"}, "[43]": {"tested_on": "T47D"}, "[44]": {"tested_on": "PC-3"}, "[45]": {"tested_on": "SK-OV-3"}, "[46]": {"tested_on": "NCI-H460"}, "[47]": {"tested_on": "OVCAR-4"}, "[48]": {"tested_on": "BT-549"}, "[49]": {"tested_on": "DU-145"}, "[50]": {"tested_on": "MOLT-4"}, "[51]": {"tested_on": "KM12"}, "[52]": {"tested_on": "NCI-H23"}, "[53]": {"tested_on": "LOX IMVI"}, "[54]": {"tested_on": "SK-MEL-2"}, "[55]": {"tested_on": "A498"}, "[56]": {"tested_on": "SF-268"}, "[57]": {"tested_on": "SNB-19"}},
  "note": "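Grown in 96-well plates, cells were treated for 48 hours with each compound at five concentrations. Insufficient inhibition: endpoint recorded as highest concentration tested. Abbreviation: GI50, concentration required for 50% inhibition of growth.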 Activity calls are given as the source filed them. Rule as the data show it: active = GI50 up to about 1.1 µM and inactive = higher.",
  "data": [
    {"smiles": "N#C/C=C(/NC(=O)Nc1ccccc1)N1CCCC1", "values": [
      {"measurement": "GI50", "setting": "[1]", "result": "> 40.7 µM (inactive)"},
      {"measurement": "GI50", "setting": "[2]", "result": "> 32.5 µM (inactive)"},
      {"measurement": "GI50", "setting": "[3]", "result": "> 31.5 µM (inactive)"},
      {"measurement": "GI50", "setting": "[4]", "result": "> 65.6 µM (inactive)"},
      {"measurement": "GI50", "setting": "[5]", "result": "> 44.2 µM (inactive)"},
      {"measurement": "GI50", "setting": "[6]", "result": "45.6 µM (inactive)"},
      {"measurement": "GI50", "setting": "[7]", "result": "31.9 µM (inactive)"},
      {"measurement": "GI50", "setting": "[8]", "result": "> 82 µM (inactive)"},
      {"measurement": "GI50", "setting": "[9]", "result": "56.4 µM (inactive)"},
      {"measurement": "GI50", "setting": "[10]", "result": "> 33.1 µM (inactive)"},
      {"measurement": "GI50", "setting": "[11]", "result": "> 86.1 µM (inactive)"},
      {"measurement": "GI50", "setting": "[12]", "result": "> 30.3 µM (inactive)"},
      {"measurement": "GI50", "setting": "[13]", "result": "> 72.6 µM (inactive)"},
      {"measurement": "GI50", "setting": "[14]", "result": "> 100 µM (inactive)"},
      {"measurement": "GI50", "setting": "[15]", "result": "> 89.3 µM (inactive)"},
      {"measurement": "GI50", "setting": "[16]", "result": "> 45 µM (inactive)"},
      {"measurement": "GI50", "setting": "[17]", "result": "> 100 µM (inactive)"},
      {"measurement": "GI50", "setting": "[18]", "result": "> 45.9 µM (inactive)"},
      {"measurement": "GI50", "setting": "[19]", "result": "> 82.6 µM (inactive)"},
      {"measurement": "GI50", "setting": "[20]", "result": "> 59.4 µM (inactive)"},
      {"measurement": "GI50", "setting": "[21]", "result": "> 49 µM (inactive)"},
      {"measurement": "GI50", "setting": "[22]", "result": "> 86.3 µM (inactive)"},
      {"measurement": "GI50", "setting": "[23]", "result": "> 47.4 µM (inactive)"},
      {"measurement": "GI50", "setting": "[24]", "result": "> 55.8 µM (inactive)"},
      {"measurement": "GI50", "setting": "[25]", "result": "> 68.9 µM (inactive)"},
      {"measurement": "GI50", "setting": "[26]", "result": "> 55 µM (inactive)"},
      {"measurement": "GI50", "setting": "[27]", "result": "> 42 µM (inactive)"},
      {"measurement": "GI50", "setting": "[28]", "result": "> 34.8 µM (inactive)"},
      {"measurement": "GI50", "setting": "[29]", "result": "> 100 µM (inactive)"},
      {"measurement": "GI50", "setting": "[30]", "result": "> 48 µM (inactive)"},
      {"measurement": "GI50", "setting": "[31]", "result": "> 100 µM (inactive)"},
      {"measurement": "GI50", "setting": "[32]", "result": "> 47.4 µM (inactive)"},
      {"measurement": "GI50", "setting": "[33]", "result": "> 59.7 µM (inactive)"},
      {"measurement": "GI50", "setting": "[34]", "result": "> 100 µM (inactive)"},
      {"measurement": "GI50", "setting": "[35]", "result": "> 100 µM (inactive)"},
      {"measurement": "GI50", "setting": "[36]", "result": "> 38.7 µM (inactive)"},
      {"measurement": "GI50", "setting": "[37]", "result": "> 39.9 µM (inactive)"},
      {"measurement": "GI50", "setting": "[38]", "result": "> 36.2 µM (inactive)"},
      {"measurement": "GI50", "setting": "[39]", "result": "> 36.8 µM (inactive)"},
      {"measurement": "GI50", "setting": "[40]", "result": "> 47.9 µM (inactive)"},
      {"measurement": "GI50", "setting": "[41]", "result": "> 56.2", "unit": "µM"},
      {"measurement": "GI50", "setting": "[42]", "result": "> 55.8 µM (inactive)"},
      {"measurement": "GI50", "setting": "[43]", "result": "> 85.1 µM (inactive)"},
      {"measurement": "GI50", "setting": "[44]", "result": "> 35.3 µM (inactive)"},
      {"measurement": "GI50", "setting": "[45]", "result": "> 100 µM (inactive)"},
      {"measurement": "GI50", "setting": "[46]", "result": "> 37.5 µM (inactive)"},
      {"measurement": "GI50", "setting": "[47]", "result": "34.6 µM (inactive)"},
      {"measurement": "GI50", "setting": "[48]", "result": "> 67.5 µM (inactive)"},
      {"measurement": "GI50", "setting": "[49]", "result": "> 50.9 µM (inactive)"},
      {"measurement": "GI50", "setting": "[50]", "result": "> 100 µM (inactive)"},
      {"measurement": "GI50", "setting": "[51]", "result": "> 54.8 µM (inactive)"},
      {"measurement": "GI50", "setting": "[52]", "result": "> 49.3 µM (inactive)"},
      {"measurement": "GI50", "setting": "[53]", "result": "> 66.7 µM (inactive)"},
      {"measurement": "GI50", "setting": "[54]", "result": "> 32.9 µM (inactive)"},
      {"measurement": "GI50", "setting": "[55]", "result": "> 100 µM (inactive)"},
      {"measurement": "GI50", "setting": "[56]", "result": "> 32.3 µM (inactive)"},
      {"measurement": "GI50", "setting": "[57]", "result": "> 25.2 µM (inactive)"}
    ]}
  ]
}
